Like-named read-outs stand apart in the source and are kept apart here.
Tests used:
Type in all cases: cell-based, mouse
GL261 cells [1] = assay: Guava ViaCount assay, apoptotic cells; settings: GL261, 24 and 48 h exposure
Description: The ViaCount Assay was used to distinguish viable and non-viable cells based on the differential permeability of two dyes in the Guava ViaCount Reagent. The membrane-permeant dye stains all nucleated cells, leaving the cellular debris unstained, while the membrane-impermeant dye brightly stains damaged cells, thus indicating apoptotic and dying cells. GL261 cells (6 × 10^4) were seeded for 24 h in 24-well plates and thereafter were exposed to the TmHg and EtHg for 24 and 48 h. Following treatment, cells were collected from plates along with cell culture supernatants and centrifuged for 5 min (650 g). Supernatants were discarded and the cells were resuspended in phosphate-buffered saline (PBS) containing 2% FBS. Subsequently, 15 μL of cell suspension were mixed with 135 μL of Guava ViaCount reagent and incubated for 5 min at room temperature. Sample acquisition and data analysis were performed with the Guava easyCyte 5HT flow cytometer (GuavaTechnologies, Inc., Hayward, CA, United States) using the ViaCount software module.

GL261 cells [2] = assay: cells; settings: for increase of LDH release upon co-exposure with TMZ: GL261, 200 µM TMZ + 1 µM mercury compound; for EC50: GL261, 24 h exposure, read-out: EC50 (LDH assay)
Description: Cells were seeded in 96-well plates for 24 h prior to the addition of TmHg, EtHg (1 µM), TMZ (200, 400, and 800 µM), and for the 48 h end point the co-exposure of TMZ 200 µM with 1 µM EtHg and 1 µM TmHg. After exposure for 24 and 48 h, the supernatant was transferred to a fresh plate and a lysis buffer (10×) (Thermo Scientific™ Pierce™) was added to wells containing cells and incubated at 37°C for 45 min. LDH activity was evaluated using LDH Cytotoxicity Assay Kit from Thermo Scientific™ Pierce™ in the supernatant and lysate by the addition of lactate (substrate), a tetrazolium salt, and NAD^+ (cofactor) (Reaction Mixture), according to the manufacturer’s instructions. Following 30 min of incubation in the dark at room temperature, LDH release was assessed by measuring the absorbance at 490 and 680 nm in a microplate reader (Omega BMG LABTECH). The release of LDH was quantified as the ratio between the amount in the supernatant and total LDH (supernatant + lysate) ([Branco et al., 2017]).

GL261 cells [3] = assay: cells; settings: read-out: IC50 (MTT assay)
Description: The effect of TmHg and EtHg on the viability of GL261 and N9 cells was evaluated by the MTT assay as previously described ([Branco et al., 2014]). Briefly, cells (5 × 10^3) were seeded in 96-well plates (Nunc®) and incubated at 37°C for 24 h to allow proper adherence to plates. Afterwards, TmHg and EtHg (0, 0.5, 1, 2.5, and 5 μM) were added to wells. The same procedure was carried out to evaluate the effect of TMZ on the cellular viability of GL261 and DMSO at a final concentration of 0.1% was added as a control group. For co-exposure, the addition of the mercury compounds (EtHg—1 and 2 μM; TmHg—1 and 2 µM) under study followed the addition of TMZ (200 µM).
Cell viability was determined at the time of addition of the compounds (0 h) and after 24, 48, and 72 h of exposure by adding MTT to a final concentration of 400 μg/ml per well and incubating at 37°C for 4 h. After incubation, the medium was removed, and the formazan crystals were dissolved in a 4:1 DMSO/glycine buffer (pH 10.5). After shaking for 15 min, the viability was evaluated through the measurement of formazan absorption at 550 nm on a microplate reader (Zenyth 3100, Anthos Labtec Instruments) ([Branco et al., 2014]).
The IC50 is the concentration of a compound that decreases MTT reduction by 50% relative to the non-treated control at each time point.

Prx2 = Prx2 redox state (dimer/monomer, non-reducing Western blot); settings: GL261, 1 and 2 μM, 24 h
Description: To evaluate the Prx2 redox state, cells were lysed in lysis buffer containing NEM (N-ethylmaleimide; Sigma) and, subsequently, the soluble protein fraction was separated by non-reducing SDS-PAGE electrophoresis, followed by transfer to a nitrocellulose membrane, after blockage with milk and incubation with the respective antibodies–Prx2 mouse monoclonal IgG (sc-515428, Sta. Cruz) and goat anti-mouse IgG-HRP (sc-2005, Sta. Cruz)—as previously described ([Brown et al., 2008]). The ratio between the bands of the Prx2 dimer and monomer was quantified for each sample using the Bio-Rad Quantity One software.

Caspase-3 = Caspase-3 activity (DEVD-pNA assay) in lysates of exposed GL261 cells; settings: GL261, 5 µM, 24 h
Description: Caspase-3 activity was determined by measuring the enzymatic cleavage of chromophore p-nitroanilide (pNA) from the substrate N-acetyl-Asp-Glu-Val-Asp-pNA (DEVD-pNA) ([Borralho et al., 2007]).
This activity was determined based on a proteolytic reaction previously described ([Borralho et al., 2007]) with some modifications. In this assay total cell lysates were used, where cells were exposed to the TmHg and EtHg (1; 2 and 5 µM) for 24 h. This reaction was performed in an isolation buffer, containing 100 μg of cytosolic protein of cellular lysates, 50 μM of DTT, and […] of DEVD-pNA (Sigma-Aldrich). Next, the reaction mixtures were incubated at 37°C for 3 h. Finally, the pNa formation was measured at 405 nm using a microplate reader (Zenyth 3100, Anthos Labtec Instruments) ([Borralho et al., 2007]).

| Compound | increase in number of apoptotic cells compared to control (GL261 cells [1]) [%] | increase of LDH release upon co-exposure with TMZ (GL261 cells [2]) | EC50 (GL261 cells [2]) [nM] | IC50 (GL261 cells [3]; GL261, 24 h exposure) [nM] | IC50 (GL261 cells [3]; GL261, 48 h exposure) [nM] | IC50 (GL261 cells [3]; GL261, 72 h exposure) [nM] | increase in Prx2 dimerization relative to non-treated control (Prx2) | increase of caspase-3 activity (Caspase-3) | EC50 (LDH) fold lower in GL261 than in SH-SY5Y cells (GL261 cells [2]; GL261 versus previously reported SH-SY5Y value (Branco et al., 2017)) [fold] |
| --- | --- | --- | --- | --- | --- | --- | --- | --- | --- |
| C[CH2][Hg][S]c1ccccc1C(=O)[O-].[Na+] [TmHg, thimerosal] | > 50 | greater than 50% | 1310 ± 200 | 2500 ± 400 | 2500 ± 400 | 920 ± 100 | 20–40% | up to 50% |  |
| C[CH2][Hg] [EtHg, ethylmercury] | > 50 | greater than 50% | 1710 ± 400 | 2700 ± 300 | 2400 ± 400 | 970 ± 70 | 20–40% | up to 50% | 3 |

Source: publication PMC9260667, “Thioredoxin Reductase Inhibitors as Potential Antitumors: Mercury Compounds Efficacy in Glioma Cells” (Frontiers in Molecular Biosciences, 2022)
